Results on 20 molecules are retold here after patent US20060063759A1, “Tricyclic steroid hormone nuclear receptor modulators” (priority 2002, published 2006).

The structures appear in SMILES notation.

The target of one assay is T1, human MR (Homo sapiens, UniProt P08235).
T1 construct: The full length human MR gene is cloned from a human kidney or human brain cDNA library; His tag from the pAcHLT vector (own knowledge); made in house; host or cells: Sf9 insect cells (baculovirus, pAcHLT transfer vector)
T1 sequence (P08235 1-984): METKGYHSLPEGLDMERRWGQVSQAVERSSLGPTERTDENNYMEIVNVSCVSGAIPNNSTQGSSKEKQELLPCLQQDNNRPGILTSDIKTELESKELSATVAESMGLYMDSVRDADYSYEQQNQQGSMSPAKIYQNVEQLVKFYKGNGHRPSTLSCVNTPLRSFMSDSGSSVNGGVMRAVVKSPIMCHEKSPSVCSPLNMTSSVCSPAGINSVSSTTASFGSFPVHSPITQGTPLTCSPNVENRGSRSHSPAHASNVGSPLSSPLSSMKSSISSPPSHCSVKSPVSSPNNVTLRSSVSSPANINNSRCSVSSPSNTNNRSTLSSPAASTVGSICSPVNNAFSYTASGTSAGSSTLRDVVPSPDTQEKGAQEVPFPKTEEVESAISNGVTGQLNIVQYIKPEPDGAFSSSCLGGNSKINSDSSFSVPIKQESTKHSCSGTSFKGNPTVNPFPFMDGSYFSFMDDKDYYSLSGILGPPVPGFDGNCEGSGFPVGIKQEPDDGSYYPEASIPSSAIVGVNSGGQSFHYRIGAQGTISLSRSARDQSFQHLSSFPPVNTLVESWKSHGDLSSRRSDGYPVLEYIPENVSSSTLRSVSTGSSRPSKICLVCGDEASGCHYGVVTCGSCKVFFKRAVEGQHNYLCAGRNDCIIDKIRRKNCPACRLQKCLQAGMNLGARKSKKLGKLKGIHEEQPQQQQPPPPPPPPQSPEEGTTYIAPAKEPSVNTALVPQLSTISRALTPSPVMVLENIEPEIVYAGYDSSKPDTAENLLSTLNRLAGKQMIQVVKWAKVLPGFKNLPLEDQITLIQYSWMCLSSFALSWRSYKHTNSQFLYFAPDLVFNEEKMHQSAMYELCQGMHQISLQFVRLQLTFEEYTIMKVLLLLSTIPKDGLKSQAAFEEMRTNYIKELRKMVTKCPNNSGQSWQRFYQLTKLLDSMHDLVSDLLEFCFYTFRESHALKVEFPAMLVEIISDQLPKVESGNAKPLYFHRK
As to the kind of experiment: Mineralocorticoid Receptor Binding Assay ([3H]-aldosterone). The following applies: [3H]-aldosterone binding, human MR expressed in Sf9 cells; read-out: MR Ki. In short, it runs like this: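 Receptor source: freeze-thaw lysate of baculovirus-infected Sf9 cells carrying full-length human MR, 20-25 μg protein. Incubation ~16 h at 4 °C with shaking, pH 7.5 buffer containing 30 mM sodium molybdate and 10% glycerol.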

The next assay concerns the target T2, glucocorticoid receptor (Homo sapiens, UniProt P04150).
T2 construct: containing 50-200 ug of A549 cell extract and 1.86 nM [^3H]-dexamethasone; host or cells: A549 human lung epithelial cells (sonicated cell extract)
T2 sequence (P04150 1-777): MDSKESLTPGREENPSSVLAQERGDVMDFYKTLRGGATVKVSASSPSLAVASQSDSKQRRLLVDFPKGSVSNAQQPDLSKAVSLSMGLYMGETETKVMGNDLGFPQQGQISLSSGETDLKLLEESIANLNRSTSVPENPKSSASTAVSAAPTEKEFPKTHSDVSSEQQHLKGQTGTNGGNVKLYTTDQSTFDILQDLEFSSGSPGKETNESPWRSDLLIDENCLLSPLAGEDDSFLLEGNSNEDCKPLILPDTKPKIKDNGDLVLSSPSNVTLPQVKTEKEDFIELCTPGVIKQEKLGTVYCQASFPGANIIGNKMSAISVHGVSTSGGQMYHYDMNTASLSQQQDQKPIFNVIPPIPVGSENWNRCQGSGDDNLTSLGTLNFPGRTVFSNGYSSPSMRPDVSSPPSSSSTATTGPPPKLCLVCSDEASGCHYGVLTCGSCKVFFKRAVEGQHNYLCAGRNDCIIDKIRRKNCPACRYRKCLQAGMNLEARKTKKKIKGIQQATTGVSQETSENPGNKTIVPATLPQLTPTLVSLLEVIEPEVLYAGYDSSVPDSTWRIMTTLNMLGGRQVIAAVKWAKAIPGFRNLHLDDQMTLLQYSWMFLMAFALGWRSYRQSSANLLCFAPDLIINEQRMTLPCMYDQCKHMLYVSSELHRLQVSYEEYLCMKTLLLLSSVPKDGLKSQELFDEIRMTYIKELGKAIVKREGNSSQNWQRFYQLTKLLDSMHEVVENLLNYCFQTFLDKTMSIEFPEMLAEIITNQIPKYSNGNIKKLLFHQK
As to the kind of experiment: Glucocorticoid Receptor Binding Assay ([3H]-dexamethasone, A549 cell extract). The note with it: [3H]-dexamethasone binding, read-out: GR Ki. In short, it runs like this:
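Displacement of [3H]-dexamethasone (1.86 nM) from glucocorticoid receptor in sonicated A549 lung epithelial cell extracts, 16 h at 4 °C, pH 7.2 molybdate-containing buffer. Bound radioactivity was scintillation-counted after charcoal/dextran stripping of free ligand.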

A word on the Ki: it is a measure of affinity in units of concentration, obtained from inhibition or displacement. For the molecule `CC(=O)Nc1cccc(/C=C2\c3ccc(F)cc3CCc3ncccc32)c1` [Example 545], the Ki at human MR was < 500 nM; on glucocorticoid receptor, < 10000 nM.
For `O=S(=O)(CC(F)(F)F)Nc1cccc(C=C2c3ccc(Cl)cc3CSc3cc(Cl)ccc32)c1` [Example 721], in that order: < 500 nM and < 500 nM.
For `O=C1Cc2c(C=C3c4ccccc4CCc4ccccc43)cccc2N1` [Example 224, 4-(10,11-Dihydro-dibenzo[a,d]cyclohepten-5-ylidenemethyl)-1,3-dihydro-indol-2-one], in that order: < 500 nM and < 500 nM.
For `CS(=O)(=O)Nc1cccc(C=C2c3ccccc3CCc3c(N)cccc32)c1` [Example 403], in that order: < 500 nM and < 500 nM.
With `O=c1[nH]c2ccc(/C=C3\c4ccccc4COc4c(F)cccc43)cc2[nH]1` [Example 642], the Ki on human MR is < 500 nM; at glucocorticoid receptor it was < 1000 nM.
For `N#CNc1cccc(C=C2c3ccccc3CCc3ccccc32)c1` [Example 280], in that order: < 500 nM and < 1000 nM.
For the molecule `Oc1ccc(C=C2c3ccccc3CCc3c(Cl)cccc32)cc1` (mixture of isomers) [Example 212, 4-(1-Chloro-10,11-dihydro-dibenzo[a,d]cyclohepten-5-ylidenemethyl)-phenol], the Ki on human MR is < 500 nM; on glucocorticoid receptor, < 1000 nM.
For `Cc1cccc2c1C(=Cc1cccc(NS(C)(=O)=O)c1)c1ccccc1CC2` [Example 304], in that order: < 500 nM and < 500 nM.
For `Nc1ccccc1/C=C1/c2ccc(F)cc2CCc2ncccc21` [Example 531], in that order: < 500 nM and < 500 nM.
For `CC(=O)Nc1cccc(/C=C2\c3ccccc3CSc3ccccc32)c1` [Example 691], in that order: < 1000 nM and < 500 nM.
Consider `COc1cccc(C=C2c3ccccc3CCc3ccccc32)c1F` [Example 152, 5-(2-Fluoro-3-methoxy-benzylidene)-10,11-dihydro-5H-dibenzo[a,d]cycloheptene], for which the results for the inhibition constant Ki at human MR and on glucocorticoid receptor were < 500 nM and < 10000 nM, respectively.
For `N#Cc1ccc(C=C2c3ccccc3CCc3cc(F)ccc32)cc1F` [Example 336], in that order: < 500 nM and < 10000 nM.
For `COc1ccc2c(c1)CSc1ccccc1/C2=C/c1cccc(NS(C)(=O)=O)c1` [Example 692], in that order: < 500 nM and < 500 nM.
For `C(=C1c2ccccc2CCc2ccccc21)c1ccc2nc[nH]c2c1` [Example 443], in that order: < 500 nM and < 10000 nM.
For the molecule `CS(=O)(=O)Nc1cccc(CC2c3ccccc3CCc3cc(Cl)ccc32)c1` (racemic) [Example 207, N-[3-(2-Chloro-10,11-dihydro-5H-dibenzo[a,d]cycloheptenylmethyl)-phenyl]-methanesulfonamide], the Ki on human MR and on glucocorticoid receptor was < 500 nM each time.
With `C(=C1c2ccccc2CCc2ccccc21)c1ccc2cc[nH]c2c1` [Example 219, 6-(10,11-Dihydro-dibenzo[a,d]cyclohepten-5-ylidenemethyl)-1H-indole], the Ki on human MR is < 500 nM; on glucocorticoid receptor, < 1000 nM.
Turning to `O=c1[nH]c2cc(/C=C3/c4ccccc4CCc4cc(F)ccc43)ccc2o1` [Example 450], the Ki at human MR and at glucocorticoid receptor was < 500 nM throughout.
For `CS(=O)(=O)Nc1cccc(/C=C2\c3ccccc3CCc3cc(C(N)=O)ccc32)c1` [Example 416], the Ki on human MR and at glucocorticoid receptor was < 500 nM in each case.
With `CS(=O)(=O)Nc1cccc(/C=C2/c3ccccc3CCc3cc(S(C)(=O)=O)ccc32)c1` [Example 393], the Ki on human MR and on glucocorticoid receptor was < 500 nM in each case.
Turning to `CS(=O)(=O)Nc1cccc(/C=C2\c3ccccc3CCc3ccsc32)c1` [Example 501], the Ki on human MR and on glucocorticoid receptor was < 500 nM each time.
